Measured values taken from patent US20100062067A1, “COMPOSITIONS COMPRISING MACROMOLECULAR ASSEMBLIES OF LIPID AND SURFACTANT” (MALVERN COSMECEUTICS LIMITED, priority 2006, published 2010).
Starred links: 1 amine or outer side, 2 acyl side, 3 side chain; linkers in the order of their positions; H or OH if unused. Positions of bridges follow the written chain, without caps; N, C: chain ends. Non-standard residues stand in square brackets, D forms with d. Residues, ends and D or L forms follow the SMILES beside them. X1 = CC(C)CCCCCCCCC[C@H](CC(=O)[*:1])O[*:2]

Assay: not given
Conditions: literature or reported; cited from earlier work

In the case of `CCCCCCCCCCCCOCCOCCOCCOCCOCCOCCOCCOCCO` [compound 74680, Laureth-8], the HLB number is listed as 13.1.

Same assay, conditions: rough average of manufacturer and literature values; cited from earlier work

Going from `CCCCCCCCCCCCOCCOCCOCCOCCOCCOCCOCCOCCO` [compound 74680, Laureth-8] to Laureth-9 [P9641], the “Average HLB” value rises from 13.1 to 13.3.

Compared with Laureth-10 [P9769], “Sodium deoxycholate [reference compound]” is higher in “Average HLB” value: 13.5 for the first, 24 for the second.

Assay: Turbidity of surfactant/lipid compositions, formation of macromolecular complexes (Example 1)
Format: physicochemical
Conditions: 2.5% surfactant, 1% 90H lipid, ca. 0.01% S LPC co-surfactant (as 0.05% SL 80-3) in water, room temperature
Procedure: Briefly, to the appropriate volume of warm water (ca. 60° C.), SL 80-3 was added. […] 90H was then added gradually, with heating and stirring maintained throughout and for a further 45 minutes after completion.
After mixing the solution was stirred and heated to around 60-70° C.
The required quantity of warm lipid emulsion was slowly added to the warm surfactant solution while stirring with the temperature maintained.

For `O=C(O)C(O)c1ccccc1` (racemic) [Mandelic Acid, DL-Mandelic acid], the “Average Turbidity” value was greater than 150 FNU.
In the case of `O=C(O)c1ccccc1` [Benzoic Acid, Benzoic acid], the “Average Turbidity” value was greater than 150 FNU.
In the case of `CCCCCCCCCC(=O)O` [Capric Acid, Decanoic acid], the “Average Turbidity” value was greater than 150 FNU.
In the case of `CCCCCC(=O)O` [Caproic Acid, Hexanoic acid], the “Average Turbidity” value was greater than 150 FNU.
In the case of `CCCCCCCCCCCC(=O)O` [Lauric Acid, Dodecanoic acid], the “Average Turbidity” value was greater than 150 FNU.
In the case of `CCCCCCCC(=O)O` [Octanoic Acid, Octanoic acid], the “Average Turbidity” value was greater than 150 FNU.
With `CCCCCCCCCCCCCCCC(=O)O` [Palmitic Acid, Hexadecanoic acid] the “Average Turbidity” value was greater than 150 FNU.
In the case of `CCCCCCCC/C=C\CCCCCCCC(=O)[O-].[K+]` [Potassium Oleate, Potassium oleate], the “Average Turbidity” value was greater than 150 FNU.
For `O=C(O)c1ccccc1O` [Salicylic Acid, 2-Hydroxybenzoic acid], the “Average Turbidity” value was greater than 150 FNU.
In the case of Laureth-9 [P9641], the “Average Turbidity” value was greater than 150 FNU.

First: CC(C)CCCCCCCCC[C@@H]1CC(=O)N[C@@H](CCC(=O)O)C(=O)N[C@@H](CC(C)C)C(=O)N[C@H](CC(C)C)C(=O)N[C@@H](C(C)C)C(=O)N[C@@H](CC(=O)O)C(=O)N[C@H](CC(C)C)C(=O)N[C@@H](CC(C)C)C(=O)O1 [Aminofect, Surfactin] (EL[dL]VD[dL]L; linker N-C via X1)
Second: C[C@H](CCC(=O)[O-])[C@H]1CC[C@H]2[C@@H]3[C@H](O)C[C@@H]4C[C@H](O)CC[C@]4(C)[C@H]3C[C@H](O)[C@]12C.[Na+] [Sodium cholate]
The “Average Turbidity” value of the first is lower: 13.16 FNU for the first, 23.3 FNU for the second.

Compared with `CCCCCCCCCCCCOCCOCCOCCOCCOCCOCCOCCOCCO` [compound 74680, Laureth-8], Laureth-10 [P9769] is lower in “Average Turbidity” value: 131 FNU for the first, 14.02 FNU for the second.

For “Sodium deoxycholate [reference compound]”, the “Average Turbidity” value was 32.6 FNU.

Assay: not given
Conditions: Surf. Brij 35P 2.5%, lipid 90H 1.0%, co-surf. S LPC ca. 0.01% (as SL 80-3 0.05%), active agent 0.10%

First: CC(C)CCC[C@@H](C)[C@H]1CC[C@H]2C3=CC=C4C[C@@H](O)CC[C@]4(C)[C@H]3CC[C@]12C [7-dehydrocholesterol]
Second: CC(C)CCC[C@@H](C)[C@H]1CC[C@H]2[C@@H]3CC=C4C[C@@H](O)CC[C@]4(C)[C@H]3CC[C@]12C [Cholesterol]
The “Turbidity (FNU)” value of the first is higher: 58.4 FNU for the first, 10.91 FNU for the second.

First: CCCCCCCCCCCCCCCC(=O)OC[C@H](O)[C@H]1OC(=O)C(O)=C1O [Ascorbyl palmitate]
Second: CCCCCCCCCCCCCCCCCCOC(=O)[C@@]1(C)CC[C@]2(C)CC[C@]3(C)C(=CC(=O)[C@@H]4[C@@]5(C)CC[C@H](O)C(C)(C)[C@@H]5CC[C@]43C)[C@@H]2C1 [Stearyl glycrrhetinate]
The “Turbidity (FNU)” value of the first is lower: 72.4 FNU for the first, 88.9 FNU for the second.

Compared with `COc1ccc(C(=O)CC(=O)c2ccc(C(C)(C)C)cc2)cc1` [Avobenzene], `COc1ccc(C(=O)c2ccccc2)c(O)c1` [Eusolex 4360] is lower in “Turbidity (FNU)” value: 52.9 FNU for the first, 10.02 FNU for the second.

Going from `CCCCC(=O)O[C@]1(C(=O)CO)[C@@H](C)C[C@H]2[C@@H]3CCC4=CC(=O)C=C[C@]4(C)[C@@]3(F)[C@@H](O)C[C@@]21C` [Betamethasone 17-valerate] to `CCC(=O)O[C@]1(C(=O)CCl)[C@@H](C)C[C@H]2[C@@H]3CCC4=CC(=O)C=C[C@]4(C)[C@@]3(F)[C@@H](O)C[C@@]21C` [Clobetasol Propionate], the “Turbidity (FNU)” value rises from 19.24 FNU to 23.3 FNU.

First: CC12CCC(CC1=O)C2(C)C (centres unmarked) [Camphor (S-Black)]
Second: CC1=CCC(O)(C(C)C)CC1 (centres unmarked) [Melaleucol]
The “Turbidity (FNU)” value of the first is higher: 29.70 FNU for the first, 19.4 FNU for the second.

Compared with `CC(C)CCC[C@@H](C)[C@H]1CC[C@H]2[C@@H]3CC=C4C[C@@H](OS(=O)(=O)O)CC[C@]4(C)[C@H]3CC[C@]12C` [Cholesterol sulphate], `CCCC(=O)O[C@]1(C(=O)CO)CC[C@H]2[C@@H]3CCC4=CC(=O)CC[C@]4(C)[C@H]3[C@@H](O)C[C@@]21C` [Hydrocortisone-17 butyrate] is higher in “Turbidity (FNU)” value: 9.48 FNU for the first, 55.9 FNU for the second.

Going from `Clc1ccccc1C(c1ccccc1)(c1ccccc1)n1ccnc1` [Clotrimazole] to `O=C(O)Cc1ccccc1Nc1c(Cl)cccc1Cl` [Diclofenac], the “Turbidity (FNU)” value rises from 10.4 FNU to 14.39 FNU.

Compared with `O=C(CCCCc1ccc2c(c1)OCO2)N1CCCCC1` [Cosmoperine], `Nc1ccc(C(=O)O)cc1` [PABA] is higher in “Turbidity (FNU)” value: 6.38 FNU for the first, 8.81 FNU for the second.

First: O=C1OC2(c3cc(Br)c(O)c(Br)c3Oc3c2cc(Br)c(O)c3Br)c2c(Cl)c(Cl)c(Cl)c(Cl)c21 [D&C Red No. 27]
Second: COc1ccc2cc([C@H](C)C(=O)O)ccc2c1 [Naproxen]
The “Turbidity (FNU)” value of the first is higher: 16.44 FNU for the first, 14.99 FNU for the second.

Compared with `CC(Cc1ccc(O)c(O)c1)C(C)Cc1ccc(O)c(O)c1` (centres unmarked) [NDGA], `O=C(/C=C/c1ccc(O)c(O)c1)O[C@H](Cc1ccc(O)c(O)c1)C(=O)O` [Rosmarinic acid (90%)] is lower in “Turbidity (FNU)” value: 40.5 FNU for the first, 31.5 FNU for the second.

Going from `NC[C@@H]1O[C@H](O[C@H]2[C@@H](O)[C@H](O[C@@H]3[C@@H](O)[C@H](N)C[C@H](N)[C@H]3O[C@H]3O[C@H](CN)[C@@H](O)[C@H](O)[C@H]3N)O[C@@H]2CO)[C@H](N)[C@@H](O)[C@@H]1O.O=S(=O)(O)O` [Neomycin sulphate] to `C[C@@H]1[C@H](O)[C@@H](C)/C=C/C=C/CC/C=C/C=C/C=C/C=C/C(O[C@H]2O[C@H](C)[C@@H](O)[C@H](N)[C@@H]2O)CC2O[C@](O)(CC(O)C(O)CCC(O)CC(O)CC(O)CC(=O)O[C@H]1C)CC(O)C2C(=O)O` (some centres unmarked) [Nystatin], the “Turbidity (FNU)” value rises from 19.76 FNU to 21.3 FNU.

Same assay, conditions: Surf. Brij 35P 2.5%, lipid 90H 1.0%, co-surf. S LPC ca. 0.01% (as SL 80-3 0.05%), active agent 0.20%

In the case of `COC(=O)[C@@H]1[C@H]2C[C@H]3c4[nH]c5ccccc5c4CCN3C[C@@H]2CC[C@@H]1O.Cl` [Yohimbine HCl USP HO], the “Turbidity (FNU)” value was 22.78 FNU.

Same assay, conditions: Surf. Brij 35P 2.5%, lipid 90H 1.0%, co-surf. S LPC ca. 0.01% (as SL 80-3 0.05%), active agent 0.25%

Compared with `O=C(OCc1ccccc1)c1cccnc1` [Benzyl nicotinate], `OCc1cc(C(O)CNCCCCCCOCCCCc2ccccc2)ccc1O` (centres unmarked) [Salmeterol xinafoate] is lower in “Turbidity (FNU)” value: 18.84 FNU for the first, 5.49 FNU for the second.

Going from `CC12CCC(CC1=O)C2(C)C` (centres unmarked) [Camphor] to `CC(C)c1c(O)ccc2c1CC[C@H]1C(C)(C)CCC[C@]21C` [Totarol ®], the “Turbidity (FNU)” value falls from 26.80 FNU to 12.89 FNU.

First: C[C@]12CCC(=O)C=C1CC[C@@H]1[C@@H]2[C@@H](O)C[C@@]2(C)[C@H]1CC[C@]2(O)C(=O)CO [Hydrocortisone]
Second: CC1CCC(C(C)C)C(OC(=O)[C@@H]2CCC(=O)N2)C1 (some centres unmarked) [Questice CQ U/A]
The “Turbidity (FNU)” value of the first is lower: 10.00 FNU for the first, 46.81 FNU for the second.

First: Cc1cc(CC(C)CC(C)(C)C)n(O)c(=O)c1.NCCO (centres unmarked) [Octopirox ®]
Second: C=CCCCCCCCCC(=O)N[C@@H](Cc1ccccc1)C(=O)O [SepiWhite MSH]
The “Turbidity (FNU)” value of the first is lower: 9.10 FNU for the first, 10.43 FNU for the second.

For `COC(=O)[C@@H]1[C@H]2C[C@H]3c4[nH]c5ccccc5c4CCN3C[C@@H]2CC[C@@H]1O.Cl` [Yohimbine HCl Crystalline], the “Turbidity (FNU)” value was 9.85 FNU.
In the case of `COC(=O)[C@@H]1[C@H]2C[C@H]3c4[nH]c5ccccc5c4CCN3C[C@@H]2CC[C@@H]1O.Cl` [Yohimbine HCl USP], the “Turbidity (FNU)” value was 13.42 FNU.

Same assay, conditions: Surf. Brij 35P 2.5%, lipid 90H 1.0%, co-surf. S LPC ca. 0.01% (as SL 80-3 0.05%), active agent 0.80%

With `Cc1cc(CC(C)CC(C)(C)C)n(O)c(=O)c1.NCCO` (centres unmarked) [Octopirox ®] the “Turbidity (FNU)” value was 6.91 FNU.

Same assay, conditions: Surf. Brij 35P 2.5%, lipid 90H 1%, co-surf. S LPC ca. 0.01% (as SL 80-3 0.05%), active agent […]

In the case of `CC12CCC(/C(=C\c3ccccc3)C1=O)C2(C)C` (centres unmarked) [Unisol S-22], the “Turbidity (FNU)” value was 14.59 FNU.

Same assay, conditions: Surf. Protasorb L-20 2.5%, lipid 90H 1.0%, co-surf. S LPC ca. 0.01% (as SL 80-3 0.05%), active agent 0.10%

In the case of Vitamin E, the “Turbidity (FNU)” value was 29.60 FNU.

Same assay, conditions: Surf. Volpo L23 2.5%, lipid 90H 1.0%, co-surf. S LPC ca. 0.01% (as SL 80-3 0.05%), active agent 0.10%

In the case of `O=C1OC2(c3cc(Br)c(O)c(Br)c3Oc3c2cc(Br)c(O)c3Br)c2c(Cl)c(Cl)c(Cl)c(Cl)c21` [D&C Red No. 27], the “Turbidity (FNU)” value was 21.85 FNU.

Same assay, conditions: Surf. Volpo L23 2.5%, lipid 90H 1.0%, co-surf. S LPC ca. 0.01% (as SL 80-3 0.05%), active agent 0.25%

Going from `Cc1c(C2(c3cc(Br)c(O)c(Br)c3C)OS(=O)(=O)c3ccccc32)cc(Br)c(O)c1Br` [Bromocresol Green] to `Clc1ccc(COC(Cn2ccnc2)c2ccc(Cl)cc2Cl)cc1` (centres unmarked) [Econazole nitrate], the “Turbidity (FNU)” value rises from 19.40 FNU to 71.50 FNU.

First: Cc1cc(C2CCCCC2)n(O)c(=O)c1 [Ciclopirox olamine, reference compound]
Second: CCCCCCCCCCCCOC(=O)[C@@H]1CCC(=O)N1 [Laurydone ®]
The “Turbidity (FNU)” value of the first is lower: 10.85 FNU for the first, 61.70 FNU for the second.

With `CCCCCCCCCCCCCCOC(=O)[C@@H]1CCC(=O)N1` [Myristidone ®] the “Turbidity (FNU)” value was 58.60 FNU.
